What all share (format): physicochemical
Data set [1] is described as follows: Measurement of moisture absorption (automatic gas and vapor adsorption analyzer). The note with it: BELSORP Aqua3 automatic gas and vapor adsorption analyzer. Here is the method: Regarding the crystals B and C, the moisture absorption was measured by using an automatic gas and vapor adsorption analyzer (BELSORP Aqua3 manufactured by MicrotracBEL Corp.)
The nature of data set [2]: Measurement of solubility at pH 6.9 (saturated solution, HPLC). The note with it: second dissolution test solution (pH 6.9), shaken at 20° C. for 24 hours, filtrate determined by HPLC. Here is the method: Specifically, the crystal B can achieve a solubility at pH 6.9 of 50 μg/ml or more. Here, the solubility at pH 6.9 is measured by HPLC analysis. Specifically, the solubility at pH 6.9 can be measured in the method described below in Examples.
Regarding the crystals B and C, the solubility at pH 6.9 was measured. Specifically, a sample was excessively added to a second dissolution test solution (pH 6.9) (manufactured by Kanto Chemical Co., Inc.), and the mixture was shaken at 20° C. for 24 hours to produce a saturated solution. After the undissolved sample was removed with a filter, the amount of the compound in the filtrate was determined by HPLC, and the solubility […] was calculated.

Data set [3] is described as follows: Deliquescence on standing at 60% RH and 25° C. The note with it: left in an environment of 60% RH and 25° C.; initially white powder. The procedure:
In reference to the description on page 56 in Patent Literature 1 (International Publication No. WO2017/135472), the compound 10-BoC was deprotected. Specifically, the compound 10-BoC was dissolved in ethyl acetate and the reaction liquid was cooled to 5° C. After that, a hydrochloric acid/ethyl acetate solution was added dropwise thereto, followed by stirring at 20° C. for 16 hours. After that, the solid was filtered out and dried under reduced pressure to obtain a compound 16-HCl (a hydrochloric acid salt of the compound 16). The obtained compound was initially white powder, but when left in an environment of 60% RH and 25° C., was completely deliquesced within 24 hours.

As usually defined, the solubility is how much of the substance goes into solution per volume. A lower solubility goes with a poorly soluble substance.

Counter-ions that a name gives are not always drawn. Some results are limits rather than exact numbers.

As to `Cc1cc(=O)n(-c2ccc(C[C@H](NC(=O)c3cc(F)c(NS(=O)(=O)c4ccc(NC(=O)C(C)(C)C)cc4)cc3F)C(=O)OCC(C)C)cn2)c(=O)n1C` [crystal B, isobutyl(S)-2-(2,5-difluoro-4-((4-pivalamidophenyl)sulfonamido)benzamide)-3-(6-(3,4-dimethyl-2,6-dioxo-3,6-dihydropyrimidin-1(2H)-yl)pyridin-3-yl)propanoate], the “moisture absorption (at maximum)” value in data set [1] is at most 1.35%. Also, the “solubility at pH 6.9” value in data set [2] amounted to 150 μg/ml.
On to `Cc1cc(=O)n(-c2ccc(C[C@H](N)C(=O)OCC(C)C)cn2)c(=O)n1C` [compound 16-HCl], for which, in data set [3], the “time until completely deliquesced” value was at most 24 h.
For the compound `Cc1cc(=O)n(-c2ccc(C[C@H](NC(=O)c3cc(F)c(NS(=O)(=O)c4ccc(NC(=O)C(C)(C)C)cc4)cc3F)C(=O)OCC(C)C)cn2)c(=O)n1C` [crystal C, isobutyl(S)-2-(2,5-difluoro-4-((4-pivalamidophenyl)sulfonamido)benzamide)-3-(6-(3,4-dimethyl-2,6-dioxo-3,6-dihydropyrimidin-1(2H)-yl)pyridin-3-yl)propanoate], in data set [1], the “moisture absorption (at maximum)” value is reported as at most 0.24%. Further, in data set [2], the “solubility at pH 6.9” value was 25.0 μg/ml.

Source of the values: patent US20240262805A1, “METHOD FOR PRODUCING COMPOUND OR PHARMACEUTICALLY ACCEPTABLE SALT THEREOF” (EA PHARMA CO., LTD., priority 2021, published 2024).
